# Results reported in ChEMBL document CHEMBL3862023, “Synthesis of N-aryl and N-arylcarbamoylamino derivatives of 1,3-diazinane-5-carboxamide and their activity against glioblastoma LN-229 cell line” (Bioorg Med Chem, 2016).
# What was measured:
# [1] = Solubility of the compound in DMSO/TFA; type: physicochemical
# [2] = Solubility of the compound in CHCl3/TFA; type: physicochemical
# [3] = Solubility of the compound in ethanol; type: physicochemical
# [4] = Cytotoxicity against human LN229 cells assessed as concentration required for induction of cell death after 24 hrs by crystal violet staining based light microscopic analysis; type: functional, LN-229
# [5] = Solubility of the compound in chloroform; type: physicochemical
# [6] = Solubility of the compound in DMSO; type: physicochemical
# [7] = Solubility of the compound in isopropanol; type: physicochemical
# [8] = Solubility of the compound in trifluoroacetic acid; type: physicochemical
# [9] = Solubility of the compound in water; type: physicochemical
# [10] = Solubility of compound in 1% DMSO at 100 mg/ml; type: physicochemical
# [11] = 1-Octanol-water distribution coefficient, log P of compound; type: physicochemical
SMILES,solubility [1],solubility [2],solubility [3],Activity [4],solubility [5],solubility [6],solubility [7],solubility [8],solubility [9],solubility [10],logP [11]
O=C(NNC(=O)C1C(=O)NC(=O)N(c2ccccc2)C1=O)Nc1ccc(Cl)cc1 (configuration not stated),Insoluble,Insoluble,Insoluble,100 µg/mL,Insoluble,Insoluble,Insoluble,Insoluble,–,–,–
CN1C(=O)C(C(=O)NNC(=O)Nc2ccc([N+](=O)[O-])cc2)C(=O)N(C)C1=O,Insoluble,Insoluble,Insoluble,10 µg/mL,Insoluble,Insoluble,Insoluble,Insoluble,–,–,–
O=C(NNC(=O)C1C(=O)NC(=O)N(c2ccccc2)C1=O)Nc1cccc(O)c1 (configuration not stated),Insoluble,Insoluble,Insoluble,–,Insoluble,Insoluble,Insoluble,Insoluble,–,–,–
CN1C(=O)C(C(=O)Nc2ccc(Cl)cc2)C(=O)N(C)C1=O,–,–,–,10 µg/mL,–,–,–,–,0.13 mg/mL,Insoluble,1.18
CN1C(=O)NC(=O)C(C(=O)NNC(=O)Nc2ccc(Cl)c(Cl)c2)C1=O (configuration not stated),Insoluble,Insoluble,Insoluble,–,Insoluble,Insoluble,Insoluble,Insoluble,–,–,–
O=C(NNC(=O)C1C(=O)NC(=O)N(c2ccccc2)C1=O)Nc1ccc(O)c([N+](=O)[O-])c1 (configuration not stated),Insoluble,Insoluble,Insoluble,100 µg/mL,Insoluble,Insoluble,Insoluble,Insoluble,–,–,–
O=C(NNC(=O)C1C(=O)NC(=O)N(c2ccccc2)C1=O)Nc1ccc(F)cc1 (configuration not stated),Insoluble,Insoluble,Insoluble,–,Insoluble,Insoluble,Insoluble,Insoluble,–,–,–
O=C(NNC(=O)C1C(=O)NC(=O)N(c2ccccc2)C1=O)Nc1ccc(Cl)c(Cl)c1 (configuration not stated),Insoluble,Insoluble,Insoluble,100 µg/mL,Insoluble,Insoluble,Insoluble,Insoluble,–,–,–
CN1C(=O)NC(=O)C(C(=O)NNC(=O)Nc2ccc(O)c([N+](=O)[O-])c2)C1=O (configuration not stated),Insoluble,Insoluble,Insoluble,–,Insoluble,Insoluble,Insoluble,Insoluble,–,–,–
O=C1NC(=O)C(C(=O)NNC(=O)Nc2ccccc2)C(=O)N1,Soluble,Soluble,Insoluble,100 µg/mL,Insoluble,Insoluble,Insoluble,Soluble,–,–,–
O=C(NNC(=O)C1C(=O)NC(=O)N(c2ccccc2)C1=O)Nc1ccc([N+](=O)[O-])cc1 (configuration not stated),Insoluble,Insoluble,Insoluble,100 µg/mL,Insoluble,Insoluble,Insoluble,Insoluble,–,–,–
O=C(NNC(=O)C1C(=O)NC(=O)N(c2ccccc2)C1=O)Nc1ccccc1 (configuration not stated),Insoluble,Insoluble,Insoluble,–,Insoluble,Insoluble,Insoluble,Insoluble,–,–,–
CN1C(=O)C(C(=O)NNC(=O)Nc2ccc(O)cc2)C(=O)N(C)C1=O,Insoluble,Insoluble,Insoluble,10 µg/mL,Insoluble,Insoluble,Insoluble,Insoluble,–,–,–
O=C1NC(=O)C(C(=O)NNC(=O)Nc2ccc(Cl)cc2)C(=O)N1,Soluble,Soluble,Insoluble,100 µg/mL,Insoluble,Insoluble,Insoluble,Soluble,–,–,–
CN1C(=O)C(C(=O)NNC(=O)Nc2ccc(Cl)cc2)C(=O)N(C)C1=O,Insoluble,Insoluble,Insoluble,10 µg/mL,Insoluble,Insoluble,Insoluble,Insoluble,–,–,–
CN1C(=O)NC(=O)C(C(=O)NNC(=O)Nc2ccc(O)cc2)C1=O (configuration not stated),Insoluble,Insoluble,Insoluble,–,Insoluble,Insoluble,Insoluble,Insoluble,0.07 mg/mL,Insoluble,1.08
CN1C(=O)C(C(=O)NNC(=O)Nc2ccccc2)C(=O)N(C)C1=O,Insoluble,Insoluble,Insoluble,–,Insoluble,Insoluble,Insoluble,Insoluble,–,–,–
CN1C(=O)NC(=O)C(C(=O)NNC(=O)Nc2ccc([N+](=O)[O-])cc2)C1=O (configuration not stated),Insoluble,Insoluble,Insoluble,100 µg/mL,Insoluble,Insoluble,Insoluble,Insoluble,–,–,–
N#Cc1ccc(NC(=O)NNC(=O)C2C(=O)NC(=O)N(c3ccccc3)C2=O)cc1 (configuration not stated),Insoluble,Insoluble,Insoluble,100 µg/mL,Insoluble,Insoluble,Insoluble,Insoluble,–,–,–
CN1C(=O)C(C(=O)NNC(=O)Nc2ccc(C#N)cc2)C(=O)N(C)C1=O,Insoluble,Insoluble,Insoluble,100 µg/mL,Insoluble,Insoluble,Insoluble,Insoluble,–,–,–
CN1C(=O)C(C(=O)NNC(=O)Nc2ccc(O)c([N+](=O)[O-])c2)C(=O)N(C)C1=O,Insoluble,Insoluble,Insoluble,10 µg/mL,Insoluble,Insoluble,Insoluble,Insoluble,–,–,–
CN1C(=O)C(C(=O)NNC(=O)Nc2cccc(O)c2)C(=O)N(C)C1=O,Insoluble,Insoluble,Insoluble,–,Insoluble,Insoluble,Insoluble,Insoluble,–,–,–
CN1C(=O)NC(=O)C(C(=O)NNC(=O)Nc2ccc(C#N)cc2)C1=O (configuration not stated),Insoluble,Insoluble,Insoluble,–,Insoluble,Insoluble,Insoluble,Insoluble,–,–,–
CN1C(=O)C(C(=O)Nc2ccccc2)C(=O)N(C)C1=O,–,–,–,100 µg/mL,–,–,–,–,0.14 mg/mL,Insoluble,0.4
CN1C(=O)C(C(=O)NNC(=O)Nc2ccc(F)cc2)C(=O)N(C)C1=O,Insoluble,Insoluble,Insoluble,100 µg/mL,Insoluble,Insoluble,Insoluble,Insoluble,–,–,–
CN1C(=O)NC(=O)C(C(=O)NNC(=O)Nc2ccc(Cl)cc2)C1=O (configuration not stated),Insoluble,Insoluble,Insoluble,100 µg/mL,Insoluble,Insoluble,Insoluble,Insoluble,–,–,–
O=C(NNC(=O)C1C(=O)NC(=O)N(c2ccccc2)C1=O)Nc1ccc(O)cc1 (configuration not stated),Insoluble,Insoluble,Insoluble,–,Insoluble,Insoluble,Insoluble,Insoluble,–,–,–
CN1C(=O)C(C(=O)NNC(=O)Nc2ccc(Cl)c(Cl)c2)C(=O)N(C)C1=O,Insoluble,Insoluble,Insoluble,1 µg/mL,Insoluble,Insoluble,Insoluble,Insoluble,0.5 mg/mL,Insoluble,0.73
